Assays:
Assay type in all cases: in vivo
[1] = test system: cotton aphid (Aphis gossvpii); assay: Insecticidal test for cotton aphid (squash cotyledon spray); details: for pest or weed control at 50 ppm: 72 h, read-out: CA: activity at 50 ppm against cotton aphid (% Control rating)
[2] = test system: Brown Planthopper (Nilaparvata lugens); assay: Insecticidal test for Brown Planthopper (rice seedling roots in test solution)
[3] = test system: Sweetpotato Whitefly (Bemisia tabacia); assay: Insecticidal test for Sweetpotato Whitefly (cotton plant spray); details: 200 ppm spray on cotton plants, 13 days, reduction of large nymphs; for pest or weed control at 200 ppm: Bemisia, 312 h, read-out: WF: activity at 200 ppm against whitefly (% Control rating)
[4] = test system: Green Leafhopper (Nephotettix cincticeps); assay: Insecticidal test for Green Leafhopper (rice seedling roots in test solution)
[5] = 50 ppm spray on infested squash cotyledons, 3 days, population reduction versus untreated
[6] = 10 ppm test solution, rice seedling roots, 3rd instar nymphs, mortality at 6 days

SMILES	GLH: activity at 10 ppm against green leafbopper (% Control rating) [4, 6]	CA: activity at 50 ppm against cotton aphid (% Control rating) [1, 5]	WF: activity at 200 ppm against whitefly (% Control rating) [3]	other results
CCC#Cc1sc(-c2nc(-c3c(F)cccc3Cl)nn2C)c(Cl)c1Cl [Compound 5]	F (less than 50)	–	–	pest or weed control at 50 ppm [1, 5]: 80 to 89%; BPH: activity at 10 ppm against brown planthopper (% Control rating) [2, 6]: F (less than 50); pest or weed control at 200 ppm [3]: < 50%
Cc1ccncc1C#Cc1sc(-c2nc(-c3c(F)cccc3Cl)nn2C)c(Cl)c1Cl [Compound 21]	–	F (less than 50)	–	BPH: activity at 10 ppm against brown planthopper (% Control rating) [2, 6]: F (less than 50)
C=C(C)C#Cc1sc(-c2nc(-c3c(F)cccc3Cl)nn2C)c(Cl)c1Cl [Compound 38]	–	D (60-69)	F (less than 50)	–
CC=CC#Cc1sc(-c2nc(-c3c(F)cccc3Cl)nn2C)c(Cl)c1Cl [Compound 39]	–	–	–	CA: activity at 50 ppm against cotton aphid (% Control rating) ([1]; in vivo): B (key: A: 90-100; B: 80-89; C: 70-79; D: 60-69; E: 50-59; F: less than 50; G: inactive); BPH: activity at 10 ppm against brown planthopper (% Control rating) ([2]; in vivo): F (key: A: 90-100; B: 80-89; C: 70-79; D: 60-69; E: 50-59; F: less than 50; G: inactive); GLH: activity at 10 ppm against green leafbopper (% Control rating) ([4]; in vivo): F (key: A: 90-100; B: 80-89; C: 70-79; D: 60-69; E: 50-59; F: less than 50; G: inactive)
Cc1ccnc(C#Cc2sc(-c3nc(-c4c(F)cccc4Cl)nn3C)c(Cl)c2Cl)c1 [Compound 43]	F (less than 50)	F (less than 50)	F (less than 50)	–
Cc1cccc(C#Cc2sc(-c3nc(-c4c(F)cccc4Cl)nn3C)c(Cl)c2Cl)n1 [Compound 44]	–	F (less than 50)	F (less than 50)	–
Cc1cc(C#Cc2sc(-c3nc(-c4c(F)cccc4Cl)nn3C)c(Cl)c2Cl)ccn1 [Compound 57]	F (less than 50)	–	F (less than 50)	–
CCOc1ccc(C#Cc2ccc(-c3nc(-c4c(F)cccc4Cl)nn3C)s2)cc1 [Compound 66]	F (less than 50)	B (80-89)	F (less than 50)	–
Cn1nc(-c2c(F)cccc2Cl)nc1-c1ccc(C#Cc2ccccc2F)s1 [Compound 69]	F (less than 50)	E (50-59)	F (less than 50)	–
Cn1nc(-c2c(F)cccc2Cl)nc1-c1ccc(C#Cc2ccccc2)cc1 [Compound 70]	–	C (70-79)	F (less than 50)	–
CCCc1ccc(C#Cc2ccc(-c3nc(-c4c(F)cccc4Cl)nn3C)cc2)cc1 [Compound 71]	–	A (90-100)	F (less than 50)	BPH: activity at 10 ppm against brown planthopper (% Control rating) [2, 6]: F (less than 50)
CCCc1ccc(C#Cc2sc(-c3nc(-c4c(F)cccc4Cl)n[nH]3)c(Cl)c2Cl)cc1 [Compound 80]	–	–	F (less than 50)	–
COc1ccc(C#Cc2ccc(-c3nc(-c4c(Cl)cncc4Cl)nn3C)cc2)cc1 [Compound 88]	F (less than 50)	D (60-69)	F (less than 50)	–
COc1ccc(C#Cc2cccc(-c3nc(-c4c(Cl)cncc4Cl)nn3C)c2)cc1 [Compound 89]	F (less than 50)	B (80-89)	F (less than 50)	–
C#Cc1ccc(-c2nc(-c3c(F)cccc3Cl)nn2C)c(Cl)c1Cl [Compound 97]	–	–	–	pest or weed control at 50 ppm [1, 5]: 80 to 89%; pest or weed control at 200 ppm [3]: < 50%
